From ChEMBL document CHEMBL1201862, “PubChem BioAssay data set” (2004)
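Growth conditions: 96-well plates. Treatment: test compound, 48 hours, 5 concentrations. Analysis: linear interpolation between bracketing concentrations; unreached endpoints set to highest concentration. GI50 marks 50% less growth.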 Activity calls are given as the source filed them. Rule as the data show it: active = GI50 up to about 1.1 µM and inactive = higher.

Key:
Assay in all cases: DTP human tumour cell line panel, 48 h
[1] = system: A549
[2] = system: HCT-116
[3] = system: HCT-15
[4] = system: HOP-62
[5] = system: LOX IMVI
[6] = system: Malme-3M
[7] = system: NCI-H226
[8] = system: NCI-H460
[9] = system: OVCAR-3
[10] = system: RPMI-8226
[11] = system: SF-268
[12] = system: SK-MEL-28
[13] = system: SK-MEL-5
[14] = system: SNB-19
[15] = system: SW-620
[16] = system: TK-10
[17] = system: U-251
[18] = system: SK-MEL-2

Row | SMILES | GI50 [1] | GI50 [2] | GI50 [3] | GI50 [4] | GI50 [5] | GI50 [6] | GI50 [7] | GI50 [8] | GI50 [9] | GI50 [10] | GI50 [11] | GI50 [12] | GI50 [13] | GI50 [14] | GI50 [15] | GI50 [16] | GI50 [17] | GI50 [18]
1 | CCCCCCCCCCCCCCCCCC(=O)NCCCNCCCNC(=O)CCCCCCCCCCCCCCCCC | > 100 µM (inactive) | > 100 µM (inactive) | > 100 µM | > 100 µM (inactive) | > 100 µM (inactive) | > 100 µM (inactive) | > 100 µM (inactive) | > 100 µM (inactive) | 37.3 µM (inactive) | > 100 µM (inactive) | > 100 µM (inactive) | > 100 µM (inactive) | > 100 µM (inactive) | > 100 µM (inactive) | > 100 µM (inactive) | > 100 µM (inactive) | > 100 µM (inactive) | 
2 | COC(=O)c1ccccc1NC(=O)C(=O)NNC(=O)c1ccncc1 | > 100 µM (inactive) | > 100 µM (inactive) | > 100 µM | > 100 µM (inactive) | > 100 µM (inactive) | > 100 µM (inactive) | > 100 µM (inactive) | > 100 µM (inactive) | > 100 µM (inactive) |  | > 10 µM (inactive) | > 100 µM (inactive) | > 100 µM (inactive) | > 100 µM (inactive) | > 100 µM (inactive) | > 100 µM (inactive) |  | 
3 | Clc1ccc(C2=NOC3C4CCC(C4)C23)cc1 (stereo not drawn) | > 100 µM (inactive) | > 100 µM (inactive) | > 100 µM | > 100 µM (inactive) |  | > 100 µM (inactive) | > 100 µM (inactive) | > 100 µM (inactive) | > 100 µM (inactive) | 87.1 µM (inactive) | > 100 µM (inactive) | > 100 µM (inactive) | > 100 µM (inactive) | > 100 µM (inactive) | > 100 µM (inactive) | > 100 µM (inactive) | > 100 µM (inactive) | > 100 µM (inactive)
4 | O=C1C2=C(CCCC2)Nc2cccc3ncn1c23 | > 100 µM (inactive) | > 100 µM (inactive) | > 100 µM | > 100 µM (inactive) | > 100 µM (inactive) | > 100 µM (inactive) |  | > 100 µM (inactive) | > 100 µM (inactive) | > 100 µM (inactive) | > 100 µM (inactive) | > 100 µM (inactive) | > 100 µM (inactive) | > 100 µM (inactive) | > 100 µM (inactive) | > 100 µM (inactive) | > 100 µM (inactive) | > 100 µM (inactive)
5 | Cc1c(C(Cc2ccccc2N(C)C(=O)/C=C\C(=O)O)c2c[nH]c3ccccc23)c2ccccc2n1C (stereo not drawn) | 16.6 µM (inactive) | 15.1 µM (inactive) | 14.3 µM | 16.2 µM (inactive) | 15.3 µM (inactive) | 6.14 µM (inactive) | 19.3 µM (inactive) | 15.3 µM (inactive) | 12.3 µM (inactive) |  | 20.6 µM (inactive) |  | 14.9 µM (inactive) | 18 µM (inactive) | 18.1 µM (inactive) | 17.7 µM (inactive) | 16.4 µM (inactive) | > 10 µM (inactive)
6 | CC(C)(C)c1cc(CCC(=O)Nc2ccc(Cl)cc2)nc(S)n1 | > 100 µM (inactive) |  | > 100 µM | > 100 µM (inactive) | > 100 µM (inactive) | > 100 µM (inactive) | > 100 µM (inactive) | > 100 µM (inactive) | > 100 µM (inactive) | > 100 µM (inactive) | > 100 µM (inactive) | > 100 µM (inactive) | > 100 µM (inactive) | > 100 µM (inactive) | > 100 µM (inactive) | > 100 µM (inactive) | > 100 µM (inactive) | > 100 µM (inactive)
7 | CCOC(=O)NC(=O)c1cn(CC(=O)NCC(=O)NCC(=O)N2CCN(CCn3c(C)nc(C(N)=O)c3N)CC2)c(=O)[nH]c1=O | > 100 µM (inactive) | > 100 µM (inactive) | > 100 µM | > 100 µM (inactive) | > 100 µM (inactive) | > 100 µM (inactive) |  | > 100 µM (inactive) |  |  | > 100 µM (inactive) | > 100 µM (inactive) | > 100 µM (inactive) | > 100 µM (inactive) | > 100 µM (inactive) | > 100 µM (inactive) | > 100 µM (inactive) | > 100 µM (inactive)
8 | CN(C)CCCNC(=O)N/N=C/c1cccc([N+](=O)[O-])c1 | > 100 µM (inactive) | > 100 µM (inactive) | > 100 µM |  | > 100 µM (inactive) | > 100 µM (inactive) | > 100 µM (inactive) | > 100 µM (inactive) | > 100 µM (inactive) |  | > 100 µM (inactive) | > 100 µM (inactive) | > 100 µM (inactive) | > 100 µM (inactive) | > 100 µM (inactive) | > 100 µM (inactive) | > 100 µM (inactive) | > 100 µM (inactive)
9 | Brc1ccc(/N=c2/nc3ccccn3n3nc(-c4ccccc4)cc23)cc1 | 56.5 µM (inactive) | 52.6 µM (inactive) | 30.5 µM | 15 µM (inactive) |  | 4.34 µM (inactive) | 45.2 µM (inactive) | 45.1 µM (inactive) | 22.1 µM (inactive) | > 100 µM (inactive) | 41.6 µM (inactive) | 36 µM (inactive) | > 100 µM (inactive) | 28.5 µM (inactive) | 63.2 µM (inactive) | 29.8 µM (inactive) | 29 µM (inactive) | 9.57 µM (inactive)
10 | NC(=O)N1N=C2c3ccccc3SC[C@H]2[C@@H]1c1ccccc1 | 37.3 µM (inactive) | 13.5 µM (inactive) | 23.9 µM | 25.6 µM (inactive) | 17.5 µM (inactive) | 26.9 µM (inactive) | 22.2 µM (inactive) | 19.1 µM (inactive) | 16.9 µM (inactive) | 33.4 µM (inactive) | 33.3 µM (inactive) | 21.8 µM (inactive) | 8.07 µM (inactive) | 34.5 µM (inactive) | 33.7 µM (inactive) | 32.1 µM (inactive) | 22.1 µM (inactive) | 
11 | [N-]=[N+]=NC1CC(n2cc(COCC(F)(F)F)c(=O)[nH]c2=O)OC1CO (stereo not drawn) | > 100 µM (inactive) |  |  | > 100 µM (inactive) | > 100 µM (inactive) | > 100 µM (inactive) |  | > 100 µM (inactive) | > 100 µM (inactive) | > 100 µM (inactive) | > 100 µM (inactive) | > 100 µM (inactive) | > 100 µM (inactive) | > 100 µM (inactive) | > 100 µM (inactive) | > 100 µM (inactive) | > 100 µM (inactive) | > 100 µM (inactive)
12 | CCc1ccccc1NC(=O)C(=O)CC(=O)c1sc(Nc2ccccc2)nc1C | > 100 µM (inactive) | > 100 µM (inactive) | > 100 µM | > 100 µM (inactive) | > 100 µM (inactive) | > 100 µM (inactive) | > 100 µM (inactive) | > 100 µM (inactive) | 80.5 µM (inactive) |  | > 100 µM (inactive) | > 100 µM (inactive) | > 100 µM (inactive) | > 100 µM (inactive) | > 100 µM (inactive) | > 100 µM (inactive) | > 100 µM (inactive) | > 100 µM (inactive)
13 | O=c1[nH]c(-c2ccccc2)nc2cc([N+](=O)[O-])c(/C(Cl)=C/c3ccccc3)cc12 | 23.2 µM (inactive) | 21 µM (inactive) | 7.82 µM |  |  | 24.3 µM (inactive) | > 100 µM (inactive) |  | 30 µM (inactive) | 16.1 µM (inactive) | 29.2 µM (inactive) | 26.2 µM (inactive) | 16.1 µM (inactive) | 41 µM (inactive) | 23.6 µM (inactive) | 27.7 µM (inactive) | 28.6 µM (inactive) | 21.9 µM (inactive)
14 | O/N=C1/CCCC/C1=C\c1ccc(Cl)c(Cl)c1 | 30.1 µM (inactive) | 17.2 µM (inactive) | 28.4 µM | 49 µM (inactive) | 21 µM (inactive) |  |  | 23.9 µM (inactive) | 21.8 µM (inactive) |  | 25.1 µM (inactive) | 34.2 µM (inactive) | 16.1 µM (inactive) | 27.9 µM (inactive) | 46.6 µM (inactive) | 34.8 µM (inactive) | 17.3 µM (inactive) | 
15 | CCCO/S(=N\S(=O)(=O)c1ccccc1)c1ccccc1[N+](=O)[O-] (stereo not drawn) | > 100 µM (inactive) | > 100 µM (inactive) | > 100 µM | > 100 µM (inactive) | > 100 µM (inactive) | > 100 µM (inactive) | > 100 µM (inactive) | > 100 µM (inactive) | > 100 µM (inactive) | > 100 µM (inactive) | > 100 µM (inactive) | 63.8 µM (inactive) | > 100 µM (inactive) | > 100 µM (inactive) | > 100 µM (inactive) |  | > 100 µM (inactive) | > 100 µM (inactive)
16 | [N-]=[N+]=NC(c1cn(C2CC(O)C(CO)O2)c(=O)[nH]c1=O)C(Cl)Br (stereo not drawn) | > 100 µM (inactive) | > 100 µM (inactive) | > 100 µM |  | > 100 µM (inactive) | > 100 µM (inactive) | > 100 µM (inactive) | > 100 µM (inactive) |  | > 100 µM (inactive) |  | > 100 µM (inactive) | > 100 µM (inactive) | > 100 µM (inactive) | > 100 µM (inactive) | > 100 µM (inactive) | > 100 µM (inactive) | > 100 µM (inactive)
17 | Clc1ccccc1C1=NN(c2ccccc2)C2c3ccccc3OCC12 (stereo not drawn) | > 100 µM (inactive) | 43.3 µM (inactive) |  | > 100 µM (inactive) | 88.1 µM (inactive) | > 100 µM (inactive) |  | > 100 µM (inactive) | > 100 µM (inactive) | 34.1 µM (inactive) | > 100 µM (inactive) | > 100 µM (inactive) | 79.6 µM (inactive) | > 100 µM (inactive) | > 100 µM (inactive) | > 100 µM (inactive) | > 100 µM (inactive) | > 100 µM (inactive)
